From article PMC9532970, “Rational design of photosynthetic reaction center protein maquettes” (Frontiers in Molecular Biosciences, 2022)
pKd: −log10 of the molar value. Where two headings read alike, the source gives them in different places.

What was measured:
[1] = biological target: RC maquette-heme B complex; test: UV/vis pigment binding titration into RC maquette with heme B bound; conditions: RC maquette (His124) with heme B bound to the acceptor site; for pKd: read-out: Dissociation constant (KD)
Protocol: (§1) Ultraviolet/visible absorbance spectroscopy (UV/vis) was carried out on a Varian Cary-50 spectrophotometer. Cofactor binding titrations were performed at room temperature using 1 ml samples of ∼1 μM RC maquette in quartz cuvettes. Protein concentrations were calculated by assuming that Trp and Tyr residues have extinction coefficients at 280 nm (ε280nm) of 5,500 M^−1 cm^−1 and 1,490 M^−1 cm^−1, respectively. Samples of Zn 5-phenyl 15-(p-carboxyphenyl) porphyrin (ZnPCP) and Zn Newkome porphyrin were provided by Tatiana Esipova from the research group of Sergei Vinogradov ([Kodali et al., 2017]). The Zn chlorins SE370 and SE375 were produced by the laboratory of Jonathan Lindsey following previously established methods ([Aravindu et al., 2013]; [Kodali et al., 2017]). Other tetrapyrroles were purchased from Frontier Scientific, Inc. Stock solutions of water-soluble cofactors were prepared in water, and insoluble tetrapyrroles were prepared in dimethyl sulfoxide stock solutions of 100–200 µM concentration. Heme B stock concentrations were measured by hemochrome assay ([Berry and Trumpower, 1987]). Stock concentrations of other tetrapyrrole cofactors were estimated by mass measurements.
(§2) For each titration, a cofactor stock solution was titrated into the protein solution in the cuvette. After each addition of cofactor, at least 10 min were allowed for equilibration before collecting a UV/vis spectrum. Cofactor was typically added in steps of 0.1 equivalents of cofactor per protein until after the binding capacity of the protein appeared to have been reached, at which point 0.2 equivalents of cofactor per protein were added at a time. Binding titrations continued until at total of at least three equivalents of cofactor per protein had been added. To determine dissociation constants, we used the following one-site binding equation: A=ctotɛfree+(ɛbound−ɛfree)KD+Ptot+ctot−(KD+Ptot+ctot)^2−4Ptotctot/2+b (2)
(§3) In Eq. 2, A represents the total absorbance at a given wavelength, c tot is the total cofactor concentration, P tot is the total protein concentration, K D is the dissociation constant, εfree is the extinction coefficient of unbound cofactor in solution, εbound is the extinction coefficient of protein-bound cofactor, and b is the absorbance of the sample when c tot is zero.

RC maquette = test: UV/vis cofactor binding titration into RC maquette (no heme pre-bound); conditions: for pKd: electron acceptor titrated into 1.1-4.4 µM RC maquette, pH 7.0, fit to one-site binding equation (Eq. 2), read-out: dissociation constant (KD)
Protocol: as §1, §2, §3

cyt. b 562 = conditions: read-out: KD of CoPPIX for cyt. b 562, cited from earlier work
DH maquette = test: UV/vis heme binding titration into DH maquette; conditions: ferric heme B into 0.5 µM DH maquette, 50 mM NaCl, 10 mM MOPS pH 7.5; read-out: dissociation constant (KD)

Molecule	Dissociation constant (KD), result in words [1]	pKd (RC maquette)	other results
C1=Cc2nc1c(-c1ccccc1)c1ccc([n-]1)c(-c1ccncc1)c1nc(c(-c3ccccc3)c3ccc([n-]3)c2-c2ccncc2)C=C1.[Zn+2] [Zn meso-di(4-pyridyl)-diphenyl porphyrin]	no binding detected	–	–
C=Cc1c(C)c2cc3[nH]c(cc4nc(cc5nc(cc1[nH]2)C(C)=C5CCC(=O)[O-])C(CCC(=O)[O-])=C4C)c(C)c3C=C.[Co+2] [CoPPIX, Co(III) protoporphyrin IX]	–	6.60	CoPPIX affinity relative to heme B affinity of the RC maquette (times weaker) (RC maquette; KD 250 nM vs <10 nM): about 25 times; pKd (cyt. b 562; lower end of literature range, ref Alcala-Torano et al., 2021): 7.35; pKd (cyt. b 562; upper end of literature range, ref Sommer et al., 2016): 5.05
CC(=O)C1=C(C)C2=Cc3c(C(C)=O)c(C)c4[n]3[Fe][n]3c(c(C)c(CCC(=O)O)c3=CC3=NC(=C4)C(C)=C3CCC(=O)O)=CC1=N2 [Fe(III)-DADPIX, Fe(III) 2,4-diacetyl deuteroporphyrin IX]	–	> 8.00	–
Zn chlorin e6 [Zn chlorin e6 (ZnCe6)]	no binding detected	–	–
O=C(O)c1ccc(-c2c3nc(c(-c4ccc(C(=O)O)cc4)c4ccc([nH]4)c(-c4ccc(C(=O)O)cc4)c4nc(c(-c5ccc(C(=O)O)cc5)c5ccc2[nH]5)C=C4)C=C3)cc1 [Zn meso-tetra(4-carboxyphenyl) prophyrin]	–	–	pKd [1]: 5.30
C=CC1=C(C)c2cc3[nH]c(cc4[nH]c(cc5nc(cc1n2)C(C)=C5C=C)c(C)c4CCC(=O)O)c(CCC(=O)O)c3C [Zn protoporphyrin IX (ZnPPIX), Zn protoporphyrin IX]	–	–	pKd [1]: 5.70

Now from value to molecule, other results behind:

Dissociation constant (KD), result in words [1]	pKd (RC maquette)	Molecule	other results
no binding detected	–	CCC1=C(C)c2cc3[n-]c(cc4[n-]c(cc5nc(cc1n2)C(C)=C5CC)c(C)c4CCC(=O)O)c(CCC(=O)O)c3C.[Zn+2] [Zn mesoporphyrin IX (ZnMPIX), Zn mesoporphyrin IX]	–
–	> 8.00	C=CC1=C(C)c2cc3[n-]c(cc4[n-]c(cc5nc(cc1n2)C(C)=C5C=C)c(C)c4CCC(=O)O)c(CCC(=O)O)c3C.[Fe+2] [heme B]	pKd (DH maquette): > 8.00
